Here are results for 25 compounds from patent US7371779B2, “Synergistic compositions of N-acylhomoserine lactones and 4-quinolones” (The Secretary of State for Defense Science and Technology, priority 2001, dated 2008).

In test [1] the test system is murine splenocytes. The test can be described thus: ConA mitogen-stimulated proliferation of murine splenocytes ([3H]-thymidine incorporation). It counts as cell-based, mouse (BALB/c). Particulars: for IC50: ConA 1 μg/ml, 100,000 spleen cells, Experiment I, read-out: IC50 in inhibition of ConA induced murine splenocyte proliferation. On the procedure:
(§1) Proliferation was assessed by the incorporation of [^3H]-thymidine into DNA. Eight-week-old female BALB/c mice were obtained from Harlan (Bicester, Oxon, UK) and given food and water ad libitum. Splenocyte suspensions were prepared by removing the spleens and placing them into RPMI 1640 medium. The spleens were forced through 70-μm-pore-size wire gauzes using the plunger from a 5-ml syringe to produce a single cell suspension. The cells were pelleted by centrifugation, and erythrocytes were lysed with 0.017 M Tris, 0.144 M ammonium chloride buffer, pH 7.2. Leucocytes were washed twice with RPMI 1640 medium with 2% (vol/vol) foetal calf serum (FCS) and resuspended in complete cell culture medium (CTCM) consisting of RPMI 1640 medium with 5% FCS, 2 mM L-glutamine, and 5×10^−5 M 2-mercaptoethanol. HSL compounds were tested at doubling down dilutions ranging from 1 mM to 0.1 μM in a final volume of 200 μl of CTCM, containing ConA (Sigma, Poole, UK) at 1 μg/ml and 100,000 spleen cells. Following incubation for 48 h at 37° C. in 5% CO2-air, 0.25 μCi [^3H]-thymidine (Amersham) in 10 μl volume made up in RPMI 1640 medium was added and the cells were incubated for a further 24 h. Cells were harvested onto fibreglass filters with a Packard filtermate harvester. After the addition of 25 μl of MicroScint-O (Packard) to each well the filters were counted with the Packard TopCount scintillation counter.
Mitogen (Concanavalin A) induced murine splenocyte proliferation was indicated by the incorporation of tritated thymidine into the DNA in the mouse spleen cells as shown by counts per minute using the scintillation counter. The inhibitory effect of an HSL compound being tested on cell proliferation was indicated by a reduction in counts per minute.
as §1, with “70 μm pore size” for “70-μm-pore-size”, “5 ml” for “5-ml”, “The title compound was” for “HSL compounds were”, “dilutions” for “dilutions ranging from 1 mM to 0.1 μM in a final volume of 200 μl of CTCM,”, “g/ml” for “μg/ml”, “COrair,” for “CO2-air,”
Mitogen (Concanavalin A) induced murine splenocyte proliferation was indicated by the incorporation of tritated thymidine into the DNA in the mouse spleen cells as shown by counts per minute using the scintillation counter. The inhibitory effect of the title compound being tested on cell proliferation was indicated by a reduction in counts per minute.
(Dividing cells build labelled thymidine or BrdU into new DNA.)

Test [2] relates to human PBMC. As to the kind of experiment: ConA mitogen-stimulated proliferation of human PBMC ([3H]-thymidine incorporation). Type of test: cell-based. Particulars: Experiment II, read-out: IC50 in inhibition of ConA induced cell proliferation of PBMC. On the procedure: Blood specimens were obtained with consent from healthy human volunteers. Human peripheral blood mononuclear cells (PBMC) were isolated from heparinised whole blood by buoyant density centrifugation over Histopaque 1077 (Sigma, Poole, UK) at 600 g for 20 minutes. PBMC harvested from the ‘buffy’ layers were washed twice with RPMI 1640 medium and resuspended in CTCM. […] Human PBMC were incubated for 48 h at 37° C. in 5% CO2-air, followed by pulsing with 0.25 μCi [^3H]-thymidine (see above). After a further incubation of 24 h cells were harvested onto fibreglass filters and then counted in the presence of MicroScint-O with the Packard TopCount.
Concanavalin induced cell proliferation of human peripheral blood mononuclear cells (PBMC) was tracked, as described in I above, by a measurement of counts per minute using the scintillation counter. The inhibitory effect of an HSL compound being tested on cell proliferation was indicated by a reduction in counts per minute. […] Columns B, C and D represent different sources of human PBMC samples used.
Plots of counts per minute (cpm) against the concentration of the quorum sensing molecules and the vehicle are shown in FIG. 11.

For test [3], the system named is TNF-alpha. As to the kind of experiment: TNF-alpha production from LPS-stimulated human PBMC (sandwich ELISA). Type of test: cell-based. Here is the method: Bacterial lipopolysaccharide (LPS) stimulates the production of a variety of cytokines, including TNF-alpha, from human PBMC; these cytokines in turn influence the development of T cells, supporting a T helper 1 conducive milieu. Human PBMC prepared from whole blood by buoyant density centrifugation were resuspended in CTCM. […] Following incubation for 24 h at 37° C. in 5% CO2-air, the cell culture supernatants were collected and tested for TNF-alpha levels by ‘sandwich’ ELISA. Briefly, 96-well Nunc MaxiSorp (Life Technologies, Paisley, UK) plates were coated with 50 μl of a 2 μg/ml solution of mouse anti-human TNF-alpha monoclonal antibody (Pharmingen, UK) in 0.05 M carbonate/bicarbonate buffer, pH 9.6 overnight at 4° C. After washing the plates three times with PBS-Tween, which contained phosphate buffered saline (PBS) with 0.5% (vol/vol) Tween 20 (Sigma, Poole, UK), the plates were blocked with 1% (wt/vol) bovine serum albumin (BSA) (Sigma, Poole, UK) at room temperature for 2 h. Following three washes with PBS-Tween, 50 μl of cell culture supernatants were added and incubated overnight at 4° C.; standard human TNF-alpha (Pharmingen, UK) ranging from 2000 to 31.25 pg/ml were included for each plate. After four washes with PBS-Tween, 50 μl of a second antibody, biotinylated mouse anti-human TNF-alpha monoclonal antibody (Pharmingen, UK) was added at 0.5 μg/1 ml diluted in 1% BSA in PBS-Tween and incubated at room temperature for 1 h. Following four washes, the bound biotinylated antibody was detected with 50 μl of a 1:1,000 dilution of Streptavidin-peroxidase (Pharmingen, UK). At the end of an hour incubation at room temperature, the plates were thoroughly washed six times with PBS-Tween and the assay was developed by the addition of 100 μl of 0.1 mg/ml of tetramethyl benzidine subtrate (Sigma, Poole, UK) in 0.1 M sodium acetate buffer, pH 6 containing 0.03% H2O2. The enzyme reaction was stopped with 50 μl of 2.5 M H2SO4 after an incubation of 10 minutes at room temperature and the development was read at 450 nm with a spectrophotometric 96-well plate reader (Dynex).
A general note: ELISA stands for enzyme-linked immunosorbent assay.

Read-outs that look alike come from different tables or passages of the source.

As to `CCCCCCCCC(=O)CC(=O)N[C@H]1CCOC1=O` [Example 1, N-(3-oxoundecanoyl)-L-homoserine lactone], the IC50 in test [1] stood at 9 µM; in test [2] (human PBMC source B), 63 µM; in test [2] (human PBMC source C) it was 13 µM; in test [2] (human PBMC source D), 44 µM. Regarding `O=C(CCCCCCCCBr)CC(=O)N[C@H]1CCOC1=O` [Example 2, N-(11-Bromo-3-oxoundecanoyl)-L-homoserine lactone], the IC50 in test [1] came to 6 µM; in test [2] (human PBMC source B), 18 µM. Consider `CC(C)CCCCCCC(=O)CC(=O)N[C@H]1CCOC1=O` [Example 3, N-(10-Methyl-3-oxoundecanoyl)-L-homoserine lactone], for which the IC50 in test [1] was 8 µM; in test [2] (human PBMC source D), 25 µM.

On to `COC(=O)CCCCCCC(=O)CC(=O)N[C@H]1CCOC1=O` [Example 4, N-(10-Methoxycarbonyl-3-oxodecanoyl)-L-homoserine lactone], for which the IC50 amounted to 73 µM in test [1], 20 µM in test [2] (human PBMC source B) and 63 µM in test [2] (human PBMC source D). Take `CCCCCC(C)CCC(=O)CC(=O)N[C@H]1CCOC1=O` (stereo partly drawn) [Example 5, N-(6-Methyl-3-oxoundecanoyl)-L-homoserine lactone]: the IC50 in test [1] turned out to be 5 µM; in test [2] (human PBMC source B), 20 µM. `CCCCCCCCCCC(=O)CC(=O)N[C@H]1CCOC1=O` [Example 8, N-(3-Oxotridecanoyl)-L-homoserine lactone]: the IC50 in test [1] was found to be 4 µM; in test [2] (human PBMC source B), 41 µM; in test [2] (human PBMC source C), 7 µM; in test [2] (human PBMC source D), 25 µM. For the compound `O=C(CCCCCCCCCCBr)CC(=O)N[C@H]1CCOC1=O` [Example 9, N-(13-Bromo-3-oxotridecanoyl)-L-homoserine lactone], the IC50 turned out to be 3 µM in test [1], 8 µM in test [2] (human PBMC source B) and 12 µM in test [2] (human PBMC source D). For `C=CCCCCCCCCC(=O)CC(=O)N[C@H]1CCOC1=O` [Example 10, N-(3-Oxo-12-tridecenoyl)-L-homoserine lactone], in test [1], the IC50 came to 7 µM. The same measure, in the same setting: for `O=C(CCCCCCCCCCCBr)CC(=O)N[C@H]1CCOC1=O` [Example 12, N-(14-Bromo-3-oxotetradecanoyl)-L-homoserine lactone] the value was 8 µM.

For `COC(=O)CCCCCCCCCCC(=O)CC(=O)N[C@H]1CCOC1=O` [Example 13, N-(13-Methoxycarbonyl-3-oxotridecanoyl)-L-homoserine lactone], the IC50 in test [1] is 6 µM; in test [2] (human PBMC source B) it was 15 µM; in test [2] (human PBMC source D), 20 µM. With `CCCCCCC=CCCCC(=O)CC(=O)N[C@H]1CCOC1=O` [Example 14, N-(3-Oxo-7-tetradecenoyl)-L-homoserine lactone], the IC50 in test [1] turned out to be 17 µM.

For the compound `CCCC=CCCCCCCC(=O)CC(=O)N[C@H]1CCOC1=O` [Example 16, N-(3-Oxo-10-tetradecenoyl)-L-homoserine lactone], in test [1], the IC50 was found to be 15 µM.

As for `CCC=CCCCCCCCC(=O)CC(=O)N[C@H]1CCOC1=O` [Example 17, N-(3-Oxo-11-tetradecenoyl)-L-homoserine lactone], the IC50 in test [1] came to 12 µM. `C=CCCCCCCCCCC(=O)CC(=O)N[C@H]1CCOC1=O` [Example 18, N-(3-Oxo-13-tetradecenoyl)-L-lactone homoserine]: the IC50 in test [1] came to 10 µM. With `O=C(CCCCCCCCCO)CC(=O)N[C@H]1CCOC1=O` [Example 19, N-(12-Hydroxy-3-oxododecanoyl)-L-homoserine lactone], the IC50 in test [1] was found to be 9 µM; in test [3] (Experiment III, read-out: IC50 in inhibition of LPS induced production of TNF-α by human PBMC), 70 µM. For `CN(C)C(=O)CCCCCCCCC(=O)CC(=O)N[C@H]1CCOC1=O` [Example 20, N-[11-(N,N-Dimethylcarbamoyl)-3-oxoundecanoyl]-L-homoserine lactone], the IC50 in test [1] came out at 35 µM. `CCCCCCCCCC(O)CC(=O)N[C@H]1CCOC1=O` (stereo partly drawn) [Example 21, N-(3-Hydroxydodecanoyl)-L-homoserine lactone]: the IC50 in test [1] is 12 µM.

As to `CCCCCCCCCCCC(O)CC(=O)N[C@H]1CCOC1=O` (stereo partly drawn) [Example 22, N-(3-Hydroxytetradecanoyl)-L-homoserine lactone], in test [1], the IC50 was determined as 7 µM.

On to `CCCCCCC=CCCCC(O)CC(=O)N[C@H]1CCOC1=O` (stereo partly drawn) [Example 23, N-(3-Hydroxy-7-tetradecenoyl)-L-homoserine lactone], for which the IC50 in test [1] is 12 µM. The same measure, in the same setting: for `CCCC=CCCCCCCC(O)CC(=O)N[C@H]1CCOC1=O` (stereo partly drawn) [Example 25, N-(3-Hydroxy-10-tetradecenoyl)-L-homoserine lactone] the value was 20 µM; for `CCC=CCCCCCCCC(O)CC(=O)N[C@H]1CCOC1=O` (stereo partly drawn) [Example 26, N-(3-Hydroxy-11-tetradecenoyl)-L-homoserine lactone], 20 µM; for `C=CCCCCCCCCCC(O)CC(=O)N[C@H]1CCOC1=O` (stereo partly drawn) [Example 27, N-(3-Hydroxy-13-tetradecenoyl)-L-homoserine lactone], 18 µM.

`CCCC(=O)CC(=O)N[C@H]1CCOC1=O` [OHHL, reference compound]: in test [3] (LPS-stimulated human PBMC), the “inhibition of LPS induced TNF-α production by human PBMC, in words” value was “difference in activity between OHHL and OdDHL is marked”. For the compound `CCCCCC(=O)CC(=O)N[C@H]1CCOC1=O` [OOHL, N-(3-oxooctanoyl)-L-homoserine lactone, reference compound], the “inhibition of ConA induced murine splenocyte proliferation (cpm), in words” value in test [1] (ConA 1 μg/ml, BALB/c splenocytes) was “failed to inhibit proliferation”. For “N-(3-Hydroxy-9-tetradecenoyl)-L-homoserine lactone [Example 24]”, the IC50 in test [1] came out at 15 µM.
